Data reported in article PMC9973354 (mBio, 2022).

Test system: PA14 ΔfpvA ΔfpvB pHERD20T-fpvA
Assay: Checkerboard assay TS and siderophores, FpvA expressed
Type: cell-based, Pseudomonas aeruginosa
Details: 10:90 + 2% arabinose
Source text: We investigated this hypothesis by treating the ΔfpvA ΔfpvB mutant complemented with fpvA or fpvB with TS and pyoverdine-Fe^3+. If pyoverdine competes with TS for the same binding site in the transporter, a reduction in TS susceptibility would be expected, as competition would decrease entry of the antibiotic into the cell. TS susceptibility decreased >8-fold with increasing concentrations of pyoverdine-Fe^3+ when FpvA was expressed (see Fig. S2A in the supplemental material).
Supplementary file : FIG S2 Checkerboard assays of the PA14 ΔfpvA ΔfpvB strain complemented with fpvA and fpvB in trans with TS and siderophores. […] Checkerboards of the PA14 ΔfpvA ΔfpvB pHERD20T-fpvB strain with TS and enterobactin (G), ferrioxamine E (H), and arthrobactin (I). Results are averaged from three independent biological replicates. Cells in the assay were grown in 10:90 + 2% arabinose. Download FIG S2, EPS file, 2.2 MB.
Checkerboards (8 rows by 8 columns) were conducted as previously described in a 96-well plate (Nunc) ([13], [14]). TS at 75× the final concentration dissolved in DMSO was added in columns from bottom to top in increasing concentrations. Siderophores at 75× the final concentration dissolved in DSMO were added from in rows from left to right in increasing concentrations. Four columns were used for vehicle controls (DMSO) and sterile controls. […] Plates were sealed to prevent evaporation and incubated at 37°C overnight in a shaking incubator (200 rpm). The next day, the OD600 was determined with a plate reader (Thermo Scientific) and normalized to percent of growth of the vehicle control (DMSO) after subtracting the OD600 from blank media.

Row | Compound | effect of siderophore on TS susceptibility
1 | O=C(N[C@H]1COC(=O)[C@@H](NC(=O)c2cccc(O)c2O)COC(=O)[C@@H](NC(=O)c2cccc(O)c2O)COC1=O)c1cccc(O)c1O [enterobactin] | None of those siderophores reduced TS susceptibility
2 | CC(=O)N(O)CCCCCNC(=O)CC(O)(CC(=O)NCCCCCN(O)C(C)=O)C(=O)O [arthrobactin] | None of those siderophores reduced TS susceptibility
